The record followed here is US10925854B2, “Methods and compositions for preventing or treating fatty liver, protecting liver function or ameliorating liver diseases caused by fatty liver or other associated disorders” (SINEW PHARMA INC., priority 2015, dated 2021).

Experiment [1] concerns HepG2 fatty liver cells (induced with oleic acid). Put plainly: Reduction of TG content in oleic acid-induced HepG2 fatty liver cells. The following applies: for inhibition at 1 µM: Homo sapiens, read-out: TG reduction rate. It counts as cell-based, human. As to the method:
The activity of the various compounds of the present invention in reduction of fat content was analyzed by using human hepatoma cell line Hep G2.
HepG2 cell lines (15×10^6 cells) were cultured in DMEM culture No. B, incubated in an incubator with 5% CO2 at 37° C. for 24 hours, cultured in DMEM culture No. C (serum-free medium) for 24 hours, and finally cultured in DMEM culture No. D (containing oleate/albumin complex) for another 48 hours to induce HepG2 cell lines to form fatty liver cells.
HepG2 cell lines were divided into six groups, including: (1) Blank: no treatment; (2) DMSO group: cells from Blank were treated with dimethyl sulfoxide (DMSO); (3) Control: induction with oleic acid to form fatty liver cells; (4) Vehicle group: fatty liver cells formed by induction with oleic acid were treated with DMSO; (5) Positive control: fatty liver cells were treated with silymarin; and (6) Test Group: fatty liver cells were treated with various compounds of the present invention.
After incubation for 72 hours, the treated cells from each group were successively washed twice with PBS, and then incubated with 0.5 ml of trypsin/EDTA for 3 minutes. Afterwards, the cells were scraped with 2 ml of PBS and then transferred to the centrifuge tube to be shattered by ultrasonic. 20 μl of the cell extracts was taken to determine the content of protein. TG determination was performed using commercially available combination of agents (Randox). The TG content obtained above was divided by the protein content to obtain a ratio, representing a relative TG content in the cells.
The equation for calculating reduction rate (%) of TG was as follows: [1−(TG content of Test Group−TG content of Blank)/(TG content of Oleic acid induction Group−TG content of Blank)]×100%.

In experiment [2] the test system is B6 mice fed with high fat feed (fatty liver). In words: Liver lipids (TG, TC in liver) in mice with induced fatty liver. Format: in vivo. As for the experimental part: (§1) B6 mice recommended in the specification “Method for evaluating the liver protection and health care efficacies of health food” announced by the Department of Health were chosen for animal testing. More than four (4) mice were used in each group of the pre-test, while more than twelve (12) mice were used in each group of the confirmatory test. Male mice bred at 23±2° C. in an animal room with 55±15% relative humidity under normal light/dark cycle (7:00 AM-7:00 PM lights on/7:00 PM-7:00 AM lights off) and weighing 18-23 g were purchased from BioLASCO (Taipei) and housed at Laboratory Animal Center in National Defense Medical Center. The animal test was carried out according to the guideline for animal experiment of National Health Research Institutes. Mice were fed with normal feed at 3-5 g/day and unlimited supply of water for 1-2 weeks and investigated for health condition. The weight of mice was recorded once a week.
(§2) The tested animals were grouped randomly into Blank, High Fat Diet control (HFD), Positive Control (PS), and Test group. The animals of Blank were fed with normal feed. The animals of HFD were fed with high fat feed. The animals of PS were fed with high fat feed, and additionally fed with silymarin (5 mg/kg/day) by a tube. The animals of Test group were fed with high fat feed, and additionally force-fed with test compounds by a tube.
(§3) The animals of Blank were fed casually with normal feed for 12 weeks, while the animals of HFD, PS, and Test group were fed casually with high fat feed for 12 weeks. After 8 weeks of feeding, the animals of Blank and HFD were fed with deionized water by a tube once a day; the animals of PS were fed with silymarin by a tube once a day; and the animals of Test Group were fed with test compounds by a tube once a day for a duration of 4 or 8 weeks.
In addition, abdominal fat and liver specimens were taken from the abdomens of sacrificed mice and weighted to compare the weight of fat and liver and obtain a ratio of liver weight to body weight. Two tissue blocks with a volume of approximately 1 cm^3 were cut from the largest right lobe of liver, fixed in 10% neutral formalin solution, and then embedded with paraffin for sectioning and H&E staining for histopathological observation. Moreover, the rest of the liver was frozen for preservation and detection of the contents of triglyceride and total cholesterol in the liver. Furthermore, the liver function of animals of each group were analyzed by Galactose Single Point Method, which was recognized and recommended for quantification of remaining liver function in clinical use by U.S. FDA and Ministry of Health and Welfare, Taiwan. At the end of the tests, 0.5 g of galactose (G.S.P.® 0.4 g/mL) per kg of animal was administered via intravenous. One hour after the administration, about 0.5 ml of whole blood was taken by using a filter paper to evaluate liver function of mice. The higher the value of GSP was, the worse the remaining liver function would be (FDA: “Guidance for Industry: Pharmacokinetics in Patients with Impaired. Hepatic Function—Study Design, Data Analysis and Impact on Dosing and. Labeling. 2003).

For experiment [3] the test system is unchanged. In words: Serum ALT and AST (liver dysfunction) in mice with induced fatty liver. Format: in vivo. As for the experimental part:
as §1, §2, §3
Before testing and in the eighth (8th), twelfth (12th), and sixteenth (16th) week after testing, blood was collected from the cheek or the heart. At the end of testing, all mice were weighted and then sacrificed, and blood was collected from the cheek or the heart simultaneously. The blood specimens of mice was placed at room temperature for one hour to clot, and then the serum was separated by centrifugation in a refrigeration centrifuge at 15,700×g at 4° C. for 5 minutes. Afterwards, biochemical indices of liver function, including aspartate transaminase (AST), alanine aminotransferase (ALT), triglyceride (TG), total cholesterol (TCHO/TC), low-density lipoprotein cholesterol (LDL-C), and high-density lipoprotein cholesterol (HDL-C), were detected by the automatic blood biochemistry analyzer.

The mark [4] stands for this setting: 72 h, tested substances 1.0 uM, fatty liver cells from HepG2.

Read-outs that look alike come from different tables or passages of the source.

Regarding `O=C1c2c(O)cc(O)cc2O[C@H](c2ccc(O)c(O)c2)[C@H]1O` [(+)-taxifolin], in experiment [1] (setting [4]), the inhibition at 1 µM was 17.9 ± 8.35%.

For `O=c1cc(-c2ccccc2)oc2cc(O)c(O)c(O)c12` [baicalein], in experiment [1] (setting [4]), the inhibition at 1 µM came to 7.09 ± 10.9%.

Take `O=C(O)[C@H]1O[C@@H](Oc2cc3oc(-c4ccccc4)cc(=O)c3c(O)c2O)[C@H](O)[C@@H](O)[C@@H]1O` [baicalin]: the inhibition at 1 µM in experiment [1] (setting [4]) is 9.21 ± 6.21%.

In the case of `O=C(O)CC(O)(CC(=O)O)C(=O)O` [citric acid], the inhibition at 1 µM in experiment [1] (setting [4]) was 2.55 ± 4.43%.

Regarding `O=c1c(-c2ccc(O)cc2)coc2cc(O)ccc12` [daidzein], the inhibition at 1 µM in experiment [1] (setting [4]) amounted to 42.3 ± 5.34%.

For `COc1ccc(-c2cc(=O)c3c(O)cc(O[C@@H]4O[C@H](CO[C@@H]5O[C@@H](C)[C@H](O)[C@@H](O)[C@H]5O)[C@@H](O)[C@H](O)[C@H]4O)cc3o2)cc1O` [diosmin], the inhibition at 1 µM in experiment [1] (setting [4]) was 11.9 ± 3.73%.

For `CC/C=C\C/C=C\C/C=C\C/C=C\C/C=C\CCCC(=O)O` [eicosapentaenoic acid (EPA), eicosapentaenoic acid], the inhibition at 1 µM in experiment [1] (setting [4]) was found to be 26.1 ± 6.14%.

For `CC(C)[C@@H](C)/C=C/[C@@H](C)[C@H]1CC[C@H]2C3=CC=C4C[C@@H](O)CC[C@]4(C)[C@H]3CC[C@]12C` [ergosterol], the inhibition at 1 µM in experiment [1] (setting [4]) was 34.2 ± 3.69%.

As for `COc1ccc(-c2coc3cc(O)ccc3c2=O)cc1` [formononetin], the inhibition at 1 µM in experiment [1] (setting [4]) was determined as 29.6 ± 1.44%.

With `O=c1c(O)c(-c2ccccc2)oc2cc(O)cc(O)c12` [galangin], the inhibition at 1 µM in experiment [1] (setting [4]) was determined as 28.1 ± 8.62%.

As to `OCC(O)CO` [glycerrin, glycerin], the inhibition at 1 µM in experiment [1] (setting [4]) was 16.2 ± 4.25%.

On to `CC1(C)[C@@H](O[C@H]2O[C@H](C(=O)O)[C@@H](O)[C@H](O)[C@H]2O[C@@H]2O[C@H](C(=O)O)[C@@H](O)[C@H](O)[C@H]2O)CC[C@]2(C)[C@H]3C(=O)C=C4[C@@H]5C[C@@](C)(C(=O)O)CC[C@]5(C)CC[C@@]4(C)[C@]3(C)CC[C@@H]12` [glycyrrhizin], for which the inhibition at 1 µM in experiment [1] (setting [4]) is 10.6 ± 7.4%.

In the case of `O=c1c(O[C@@H]2O[C@H](CO)[C@H](O)[C@H](O)[C@H]2O)c(-c2ccc(O)c(O)c2)oc2cc(O)cc(O)c12` [hyperoside], the inhibition at 1 µM in experiment [1] (setting [4]) was 30.5 ± 2.8%.

`O=c1cc(-c2ccc(O)cc2)oc2cc(O)c([C@@H]3O[C@H](CO)[C@@H](O)[C@H](O)[C@H]3O)c(O)c12` [isovitexin]: the inhibition at 1 µM in experiment [1] (setting [4]) worked out at 35.9 ± 3.35%.

Take `O=c1c(O)c(-c2ccc(O)cc2)oc2cc(O)cc(O)c12` [kaempferol]: the inhibition at 1 µM in experiment [1] (setting [4]) amounted to 36.5 ± 4.78%.

With `O=c1cc(-c2ccc(O)c(O)c2)oc2cc(O)cc(O)c12` [luteolin], the inhibition at 1 µM in experiment [1] (setting [4]) came to 6.95 ± 15.2%.

With `O=c1c(O)c(-c2ccc(O)cc2O)oc2cc(O)cc(O)c12` [morin], the inhibition at 1 µM in experiment [1] (setting [4]) was determined as 25.8 ± 10.7%.

For `CCCCCCCCCCCCCC(=O)OCC` [myristic acid ethyl ester], the inhibition at 1 µM in experiment [1] (setting [4]) was found to be 28.9 ± 3.91%.

On to `C[C@@H]1O[C@@H](O[C@H]2[C@H](Oc3cc(O)c4c(c3)O[C@H](c3ccc(O)cc3)CC4=O)O[C@H](CO)[C@@H](O)[C@@H]2O)[C@H](O)[C@H](O)[C@H]1O` [naringin], for which the inhibition at 1 µM in experiment [1] (setting [4]) was found to be 12.7 ± 3.72%.

For the molecule `CC(Cc1ccc(O)c(O)c1)C(C)Cc1ccc(O)c(O)c1` (stereo not drawn) [nordihydroguaiaretic acid], in experiment [1] (setting [4]), the inhibition at 1 µM worked out at 15.9 ± 2.3%.

On to `O=C(CCc1ccc(O)cc1)c1c(O)cc(O)cc1O[C@@H]1O[C@H](CO)[C@@H](O)[C@H](O)[C@H]1O` [phloridzin], for which, in experiment [1] (setting [4]), the inhibition at 1 µM amounted to 42.4 ± 6.05%.

As for `COc1ccc([C@@H]2CC(=O)c3c(O)cc(O[C@@H]4O[C@H](CO)[C@@H](O)[C@H](O)[C@H]4O[C@@H]4O[C@@H](C)[C@H](O)[C@@H](O)[C@H]4O)cc3O2)cc1` [poncirin], in experiment [1] (setting [4]), the inhibition at 1 µM was 38.1 ± 7.22%.

As for `O=C(O)c1ccc(O)c(O)c1` [protocatechuic acid], the inhibition at 1 µM in experiment [1] (HepG2, 72 h) was 18.6 ± 7.6%.

`C[C@@H]1O[C@@H](Oc2c(-c3ccc(O)c(O)c3)oc3cc(O)cc(O)c3c2=O)[C@H](O)[C@H](O)[C@H]1O` [quercitrin]: in experiment [1] (HepG2, 72 h), the inhibition at 1 µM turned out to be 9.15 ± 9.24%.

For `O=C1NS(=O)(=O)c2ccccc21` [saccharin], the “effect on TC in liver (in words)” value in experiment [2] is “reduces TC in liver significantly”. Also, the “effect on ALT and AST values (in words)” value in experiment [3] was “can significantly reduce ALT and AST values”. For the same molecule, in experiment [1] (setting [4]), the inhibition at 1 µM came to 17.5 ± 6.96%.

Take `COc1cc(C2Oc3cc([C@H]4Oc5cc(O)cc(O)c5C(=O)[C@@H]4O)ccc3OC2CO)ccc1O` (stereo partly drawn) [silybin]: the inhibition at 1 µM in experiment [1] (setting [4]) was determined as 30.3 ± 3.24%.

As to `COc1ccc(-c2cc(=O)c3c(OC)c(OC)c(OC)cc3o2)cc1OC` [sinensetin], the inhibition at 1 µM in experiment [1] (setting [4]) worked out at 37 ± 4.84%.

In the case of `CCCCCCCCCCCCOS(=O)(=O)[O-].[Na+]` [sodium lauryl sulfate], the inhibition at 1 µM in experiment [1] (setting [4]) was 38.7 ± 4.65%.

In the case of `C/C=C/C=C/C(=O)O` [sorbic acid], in experiment [1] (setting [4]), the inhibition at 1 µM was determined as 2.03 ± 1.96%.

For `OC[C@@H](O)[C@@H](O)[C@H](O)[C@@H](O)CO` [sorbitol], the inhibition at 1 µM in experiment [1] (setting [4]) worked out at 20.1 ± 2.57%.

In the case of `C=C[C@H]1[C@H](O[C@@H]2O[C@H](CO)[C@@H](O)[C@H](O)[C@H]2O)OC=C2C(=O)OCC[C@]21O` [swrtiamarin, swertiamarin], in experiment [1] (setting [4]), the inhibition at 1 µM stood at 6.72 ± 11%.

As to `O=C(O)/C=C/c1ccccc1` [trans-Cinnamic Acid], the inhibition at 1 µM in experiment [1] (setting [4]) is 15.8 ± 0.82%.

With `O=c1ccc2ccc(O)cc2o1` [umbelliferone], the inhibition at 1 µM in experiment [1] (setting [4]) came out at 17.4 ± 2.57%.

Take `C[C@H]1[C@H](C)CC[C@]2(C(=O)O)CC[C@]3(C)C(=CC[C@@H]4[C@@]5(C)CC[C@H](O)C(C)(C)[C@@H]5CC[C@]43C)[C@H]12` [ursolic Acid]: the inhibition at 1 µM in experiment [1] (setting [4]) amounted to 35.9 ± 8.92%.

`OC[C@@H](O)[C@H](O)[C@@H](O)CO` [xylitol]: the inhibition at 1 µM in experiment [1] (setting [4]) came to 7.36 ± 6.34%.

Consider `C=CC(=C)CCC=C(C)C` [β-myrcene], for which, in experiment [1] (setting [4]), the inhibition at 1 µM came to 34 ± 11.2%.

Regarding (−)-epicatechin-3-gallate, the TG reduction rate in experiment [1] (tested substances 1.0 uM, fatty liver cells from HepG2) is 32.7 ± 4.33%.
